Earlier results in patent publication US20230174671A1, “COMPOSITIONS AND METHODS FOR TREATING VIRAL INFECTIONS” (BIOVISTA, INC., priority 2020, published 2023).
Structures can show the parent of a compound that is named as a salt.

Assays:
SARS-CoV = conditions: HeLa cells expressing TMPRSS2; Kawase et al, 2012
[1] = test system: human coronavirus NL63 (HCoV-NL63); conditions: HeLa cells expressing TMPRSS2; Kawase et al, 2012

SMILES: CN(C)C(=O)COC(=O)Cc1ccc(OC(=O)c2ccc(NC(=N)N)cc2)cc1 [camostat mesylate]
- block of infection by SARS-CoV (SARS-CoV): partially block infection
- block of infection by human coronavirus NL63 (HCoV-NL63) [1]: partially block infection
